Tests used:
mouse (ddY male mouse) = assay: Inhibition zone formation around impregnated filter paper in rearing cage (Test Example 6); assay type: in vivo; settings: 50 μl on filter paper, 16 mice; for Formation rate of inhibition zone: time until inhibition zone is formed
Procedure: A total of 16 animals of a mouse (ddY male mouse of 7 weeks of age) were released in a rearing cage (16 cm in breadth, 23 cm in length and 20 cm in height). Thereafter, a piece of filter paper (1 cm in width and 10 cm in length) impregnated with 50 μl of essential oil shown in the following Table 4 or 50 μl of water was hung down from the center of the ceiling of the rearing cage, and a period of time until a state in which mice gathered in the periphery in the rearing cage but mice are not present around the filter paper (inhibition zone) is formed was measured.

rodent (mouse) = assay type: in vivo; settings: Test Example 1, text; azodicarbonamide at 0.2 g, nitrocellulose at 23 g

SMILES	Presence of inhibition zone (mouse (ddY male mouse))	Formation rate of inhibition zone (mouse (ddY male mouse)) [s]	Repelled rodents in comparison with the control (rodent (mouse))
CCCCCCOC(C)=O [Hexyl acetate]	present	24	–
NC(=O)N=NC(N)=O [azodicarbonamide]	–	–	a distinct difference was observed in comparison with the control
Cc1ccc(C(C)C)cc1 [p-Cymene]	present	50	–
CC1=CCC(C(C)C)=CC1 [γ-Terpinene]	present	23	–
